US20230192683A1, “FUSED RING COMPOUNDS, PREPARATION METHOD THEREFOR, PHARMACEUTICAL COMPOSITIONS AND USE THEREOF” (priority 2020, published 2023)
Marks after values point to notes of the source that are not given here.

Columns and labels:
[1] = metabolic stability in pooled human liver microsomes; conditions: pooled human liver microsomes, pH 7.4
Description: (§1) Metabolic degradation of a test compound was analyzed using pooled human liver microsomes and male rat liver microsomes, respectively, at 37° C.
(§2) After pre-incubation at 37° C. for 5 min, NADPH (5 mM, 60 µL) was added to initiate a reaction. A fixed volume of the reaction mixture (30 µL) was sampled into the solution at fixed time points (0, 5, 15, 30, 60 min) to quench the reaction. After centrifugation (4000 rpm, 15 min), the supernatant (100 µL) was mixed with distilled water (100 µL) and then subjected to LC-MS/MS analysis to test the amount of the compound. A half-life was calculated using a first-order reaction kinetic equation (Ct = C0 × e^-ket, T½ = Ln2/ke).

rat CFA pain model [2] = assay: multi-dose oral pharmacodynamic study in rat CFA pain model (Von Frey PWT); assay type: in vivo
Description: The efficacy of Compound 1a and Compound 14 in the rat CFA pain model was evaluated using a mechanical allodynia method.
SD rats, 72 males, divided into 9 groups, were purchased from Beijing Vital River Laboratory Animal Technology Co., Ltd.
The experimental animals were adaptively reared for 3 to 7 days, and 8 of them were selected as a normal control group, and the other animals were injected with 50 µL of CFA in the center of the left hind paw for modeling. 24 hours after injection, the animals were tested for paw withdrawal threshold (PWT) basal values, and were divided into groups according to the basal values, which were solvent control group, indomethacin group, Compound 1a, 10 mpk group, Compound 1a, 30 mpk group, Compound 1a, 100 mpk group, Compound 14, 3 mpk group, Compound 14, 10 mpk group, and Compound 14, 30 mpk group, with 8 animals in each group. Subsequently, the animals were weighed and administered orally according to Table 6. All the animals were tested for paw withdrawal thresholds (PWT) using Von Frey 1, 2, and 4 hours after administration to further evaluate the efficacy of the compounds of the present invention.

[3] = metabolic stability in male rat liver microsomes; conditions: rat liver microsomes, pH 7.4
Description: as §1, §2

rat CFA pain model [4] = assay: single-dose pharmacodynamic study in rat CFA pain model (Von Frey PWT); assay type: in vivo
Description: Each male SD rat (7-8 weeks old) was injected with 50 microliters of CFA in the center of the left hind paw. A PWT basal value test was conducted 24 hours after modeling, and the drugs were administered after randomization.
There were 8 animals in each group, and the animals were weighed and administered according to Table 4.
For all groups of animals, paw withdrawal thresholds (PWTs) of the animals were tested using Von Frey after 1 h and 3 h of single administration.

human SSTR4 = target: T1, human SSTR4 (Homo sapiens, UniProt P31391); assay: radioligand binding assay, [125I]Somatostatin-14, CHO-K1 membranes
T1 construct: expressed in transfected cells
T1 sequence (P31391 whole entry): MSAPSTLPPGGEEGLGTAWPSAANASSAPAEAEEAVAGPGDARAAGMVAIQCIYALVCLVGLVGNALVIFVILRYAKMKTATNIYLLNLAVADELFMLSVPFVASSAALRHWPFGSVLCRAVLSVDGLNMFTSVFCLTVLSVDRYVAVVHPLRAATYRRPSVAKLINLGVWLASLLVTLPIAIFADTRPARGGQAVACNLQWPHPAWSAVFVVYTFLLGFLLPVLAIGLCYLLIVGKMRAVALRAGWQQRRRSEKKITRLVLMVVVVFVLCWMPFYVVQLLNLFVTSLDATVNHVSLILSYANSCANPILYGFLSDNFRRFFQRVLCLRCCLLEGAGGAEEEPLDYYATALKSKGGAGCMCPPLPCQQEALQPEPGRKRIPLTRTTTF
Description: (§3) Cell membranes were then filtered and washed, and protein-bound radioactivity was measured with a suitable instrument. The Ki values of corresponding targets were calculated using a Cheng-Prusoff formula.

human SSTR2 = target: T2, human SSTR2 (Homo sapiens, UniProt P30874); assay: biochemical; conditions: 25° C., 2 hours, Cheng-Prusoff; read-out: Binding Ki (nM) SSTR2
T2 construct: expressed in transfected cells; host or cells: CHO-K1 (membrane homogenates)
T2 sequence (P30874 whole entry): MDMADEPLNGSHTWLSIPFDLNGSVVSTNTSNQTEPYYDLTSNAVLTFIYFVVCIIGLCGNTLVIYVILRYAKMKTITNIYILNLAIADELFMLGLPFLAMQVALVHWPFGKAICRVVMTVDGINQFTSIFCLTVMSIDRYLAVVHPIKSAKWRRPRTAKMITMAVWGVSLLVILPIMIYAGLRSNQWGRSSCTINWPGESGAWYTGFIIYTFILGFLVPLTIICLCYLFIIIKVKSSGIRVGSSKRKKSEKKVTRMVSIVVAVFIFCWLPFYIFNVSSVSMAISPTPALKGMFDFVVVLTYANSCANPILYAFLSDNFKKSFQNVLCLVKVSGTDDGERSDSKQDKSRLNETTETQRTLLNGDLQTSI
Description: as §3

human SSTR5 = target: T3, human SSTR5 (Homo sapiens, UniProt P35346); assay: biochemical; conditions: 25° C., 2 hours, Cheng-Prusoff; read-out: Binding Ki (nM) SSTR5
T3 construct: expressed in transfected cells; host or cells: CHO-K1 (membrane homogenates)
T3 sequence (P35346 whole entry): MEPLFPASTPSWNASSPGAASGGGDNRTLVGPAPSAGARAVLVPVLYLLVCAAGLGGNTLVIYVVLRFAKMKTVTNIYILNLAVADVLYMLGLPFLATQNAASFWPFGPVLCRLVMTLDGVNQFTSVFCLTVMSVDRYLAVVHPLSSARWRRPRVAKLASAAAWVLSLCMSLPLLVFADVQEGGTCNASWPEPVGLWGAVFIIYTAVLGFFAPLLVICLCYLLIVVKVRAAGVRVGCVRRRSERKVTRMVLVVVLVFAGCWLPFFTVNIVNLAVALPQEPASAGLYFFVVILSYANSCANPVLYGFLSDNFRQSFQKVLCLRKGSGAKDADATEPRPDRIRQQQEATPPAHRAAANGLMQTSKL
Description: as §3

human SSTR1 = target: T4, human SSTR1 (Homo sapiens, UniProt P30872); assay: biochemical; conditions: 25° C., 2 hours, Cheng-Prusoff; read-out: Binding Ki (nM) SSTR1
T4 construct: expressed in transfected cells; host or cells: CHO-K1 (membrane homogenates)
T4 sequence (P30872 whole entry): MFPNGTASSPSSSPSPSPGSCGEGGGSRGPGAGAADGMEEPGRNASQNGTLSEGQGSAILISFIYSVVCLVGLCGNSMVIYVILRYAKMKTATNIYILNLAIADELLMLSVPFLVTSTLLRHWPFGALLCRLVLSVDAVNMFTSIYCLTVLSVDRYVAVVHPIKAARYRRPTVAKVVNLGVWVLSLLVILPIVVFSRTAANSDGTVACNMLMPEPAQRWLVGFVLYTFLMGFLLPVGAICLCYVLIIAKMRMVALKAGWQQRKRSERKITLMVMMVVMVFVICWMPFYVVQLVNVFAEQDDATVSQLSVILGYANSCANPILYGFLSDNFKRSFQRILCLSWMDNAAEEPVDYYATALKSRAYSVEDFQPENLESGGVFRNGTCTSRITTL
Description: as §3

human SSTR3 = target: T5, human SSTR3 (Homo sapiens, UniProt P32745); assay: biochemical; conditions: 25° C., 2 hours, Cheng-Prusoff; read-out: Binding Ki (nM) SSTR3
T5 construct: expressed in transfected cells; host or cells: CHO-K1 (membrane homogenates)
T5 sequence (P32745 whole entry): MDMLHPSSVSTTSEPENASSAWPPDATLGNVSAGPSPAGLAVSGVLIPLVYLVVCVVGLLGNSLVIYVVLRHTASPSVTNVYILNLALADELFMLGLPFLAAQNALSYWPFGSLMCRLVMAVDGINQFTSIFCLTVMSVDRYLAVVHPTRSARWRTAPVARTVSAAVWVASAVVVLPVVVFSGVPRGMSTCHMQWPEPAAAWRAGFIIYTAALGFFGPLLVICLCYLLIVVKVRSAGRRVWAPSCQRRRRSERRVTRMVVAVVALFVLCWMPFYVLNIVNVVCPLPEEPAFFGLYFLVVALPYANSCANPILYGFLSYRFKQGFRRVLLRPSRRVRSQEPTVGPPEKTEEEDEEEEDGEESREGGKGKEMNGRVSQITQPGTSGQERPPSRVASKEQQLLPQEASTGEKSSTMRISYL
Description: as §3

half-life at 1 µM [1]: > 3.11 h
half-life at 1 µM [3]: > 3.11 h
Ki (human SSTR4): 0.51 nM
SSTR4 /SSTR 1 (human SSTR4; ratio of binding Ki values, selectivity): 879.5
Ki (human SSTR2): > 5310 nM
Ki (human SSTR5): > 5650 nM
Ki (human SSTR1): 799 nM
Ki (human SSTR3): > 3420 nM
SMILES: CSc1cccc2c(C(C)(C)NC(=O)[C@H]3[C@@H]4CNC[C@@H]43)nn(C)c12 [Compound 14, (1R,5S,6R)-N-(2-(1-Methyl-7-(Methylthio)-1H-Indazol-3-yl)Prop-2-yl)-3-Azabicyclo[3.1.0]Hexane-6-Carboxamide]
Paw withdrawal threshold (PWT(g)) (average) 0 hours (rat CFA pain model [2]; 3 mg/kg oral group): 3.118 g
Paw withdrawal threshold (PWT(g)) (average) 1 hour (rat CFA pain model [2]; 3 mg/kg oral): 3.535 g
Paw withdrawal threshold (PWT(g)) (average) 2 hours (rat CFA pain model [2]; 3 mg/kg oral): 5.369 g
Paw withdrawal threshold (PWT(g)) (average) 4 hours (rat CFA pain model [2]; 3 mg/kg oral): 5.335 g
Paw withdrawal threshold (PWT(g)) (average) 0 hours (rat CFA pain model [2]; 10 mg/kg oral group): 3.118 g
Paw withdrawal threshold (PWT(g)) (average) 1 hour (rat CFA pain model [2]; 10 mg/kg oral): 4.155 g
Paw withdrawal threshold (PWT(g)) (average) 2 hours (rat CFA pain model [2]; 10 mg/kg oral): 5.789 g
Paw withdrawal threshold (PWT(g)) (average) 4 hours (rat CFA pain model [2]; 10 mg/kg oral): 7.308 ** g
Paw withdrawal threshold (PWT(g)) (average) 0 hours (rat CFA pain model [2]; 30 mg/kg oral group): 3.079 g
Paw withdrawal threshold (PWT(g)) (average) 1 hour (rat CFA pain model [2]; 30 mg/kg oral): 4.051 g
Paw withdrawal threshold (PWT(g)) (average) 2 hours (rat CFA pain model [2]; 30 mg/kg oral): 5.683 g
Paw withdrawal threshold (PWT(g)) (average) 4 hours (rat CFA pain model [2]; 30 mg/kg oral): 8.213 **** g
inhibition of CFA-induced mechanical hyperalgesia (in words) (rat CFA pain model [2]; oral 3, 10, 30 mg/kg, 4 hours after administration): dose-dependently inhibit
onset dose (rat CFA pain model [2]; oral, inhibition of CFA-induced mechanical hyperalgesia): 10 mg/kg
Mechanical allodynia test (PWT (g), mean) Baseline (rat CFA pain model [4]; 10 mg/kg I.P. group, baseline 24 h after CFA, before administration): 3.566 g
Mechanical allodynia test (PWT (g), mean) 1 hour (rat CFA pain model [4]; 10 mg/kg I.P., 1 hour after single administration): 4.628 g
efficacy compared with Control Compound A (in words) (rat CFA pain model [4]; 10 mg/kg I.P., 3 hours after administration): significantly better than that of Control Compound A
Mechanical allodynia test (PWT (g), mean) 3 hours (rat CFA pain model [4]; 10 mg/kg I.P., 3 hours after single administration): 8.886 **** # g
inhibition of CFA-induced mechanical allodynia (in words) (rat CFA pain model [4]; 10 mg/kg I.P., single administration, FIG. 1): inhibited CFA-induced mechanical allodynia
